Experimental data taken from patent US12404244B2, “Pan-KIT kinase inhibitor having quinoline structure and application thereof” (Tarapeutics Science Inc., priority 2018, dated 2025).

Assays:
TEL-KIT/V559D-BaF3 = assay: Proliferation of TEL-KIT/V559D-BaF3 cells (CCK-8); format: cell-based; conditions: Mus musculus; 72 hours, CCK-8; read-out: GI50 TEL-KIT/V559D-BaF3
Description: (§1) Compounds as provided herein were further evaluated for their inhibitory effects on proliferation of cancer cells by testing their effects on growth of cancer cells. In this example the following cells were used: primary mouse B cells BaF3 (purchased from ATCC), GIST-T1 cells of the human gastrointestinal stromal tumor cell line (expressing wild-type KIT gene) (purchased from Cosmo Bio Co., Ltd. (Japan)). The present lab further constructed and used the following: mouse Tel-Kit-BaF3 (stably expressing KIT wild-type kinase), mouse Tel-Kit/T670I-BaF3 (stably expressing KIT T670I mutant kinase), mouse Tel-Kit/V559A-BaF3 (stably expressing KIT V559A mutant kinase), mouse Tel-Kit/V559D-BaF3 (stably expressing KIT V559D mutant kinase), mouse Tel-Kit/V559G-BaF3 (stably expressing KIT V559G mutant kinase), mouse Tel-Kit/V560D-BaF3 (stably expressing KIT V560D mutant kinase), mouse Tel-Kit/L576P-BaF3 (stably expressing KIT L576P mutant kinase), mouse Tel-Kit/V654A-BaF3 (stably expressing KIT V654A mutant kinase), mouse Tel-Kit/V654A/V559D-BaF3 (stably expressing KIT V654A V559D mutant kinase), mouse Tel-Kit/T670E-BaF3 (stably expressing KIT T670E mutant kinase), mouse Tel-Kit/T670I/V559D-BaF3 (stably expressing KIT T670I V559D mutant kinase), mouse Tel-Kit/S709F-BaF3 (stably expressing KIT S709F mutant kinase), mouse Tel-Kit/D816E-BaF3 (stably expressing KIT D816E mutant kinase), mouse Tel-Kit/D816H-BaF3 (stably expressing KIT D816H mutant kinase), mouse Tel-Kit/D820E-BaF3 (stably expressing KIT D820E mutant kinase), mouse Tel-Kit/D820G-BaF3 (stably expressing KIT D820G mutant kinase), mouse Tel-Kit/D820Y-BaF3 (stably expressing KIT D820Y mutant kinase), mouse Tel-Kit/N822K-BaF3 (stably expressing KIT N822K mutant kinase), mouse Tel-Kit/Y823D-BaF3 (stably expressing KIT Y823D mutant kinase), mouse Tel-Kit/A829P-BaF3 (stably expressing KIT A829P mutant kinase), GIST-T1-T670I cells of the human gastrointestinal stromal tumor cell line (expressing KIT-T670I mutant gene). The above cell lines were constructed by: amplifying respectively the sequences of human KIT and various mutant kinase regions of KIT via PCR, inserting the fragments respectively into MSCV-Puro vectors having a N-terminal TEL fragment and/or a NPM fragment and/or a TPR fragment (purchased from Clontech), transfecting mouse BaF3 cells with the vectors by means of retrovirus to obtain stably transfected cells, removing the growth factor IL-3, and thereby eventually obtaining cell lines that depend on the transferred protein KIT or various mutants of KIT. […]

TEL-KIT/D816E-BaF3 = assay: Proliferation of TEL-KIT/D816E-BaF3 cells (CCK-8); format: cell-based; conditions: Mus musculus; 72 hours, CCK-8; read-out: GI50 TEL-KIT/D816E-BaF3
Description: as §1

TEL-KIT/V654A-BaF3 = assay: Proliferation of TEL-KIT/V654A-BaF3 cells (CCK-8); format: cell-based; conditions: Mus musculus; 72 hours, CCK-8; read-out: GI50 TEL-KIT/V654A-BaF3
Description: as §1

TEL-KIT/D820E-BaF3 = assay: Proliferation of TEL-KIT/D820E-BaF3 cells (CCK-8); format: cell-based; conditions: Mus musculus; 72 hours, CCK-8; read-out: GI50 TEL-KIT/D820E-BaF3
Description: as §1

TEL-KIT/Y823D-BaF3 = assay: Proliferation of TEL-KIT/Y823D-BaF3 cells (CCK-8); format: cell-based; conditions: Mus musculus; 72 hours, CCK-8; read-out: GI50 TEL-KIT/Y823D-BaF3
Description: as §1

TEL-KIT/D820Y-BaF3 = assay: Proliferation of TEL-KIT/D820Y-BaF3 cells (CCK-8); format: cell-based; conditions: Mus musculus; 72 hours, CCK-8; read-out: GI50 TEL-KIT/D820Y-BaF3
Description: as §1

TEL-KIT/N822K-BaF3 = assay: Proliferation of TEL-KIT/N822K-BaF3 cells (CCK-8); format: cell-based; conditions: Mus musculus; 72 hours, CCK-8; read-out: GI50 TEL-KIT/N822K-BaF3
Description: as §1

TEL-KIT/V559A-BaF3 = assay: Proliferation of TEL-KIT/V559A-BaF3 cells (CCK-8); format: cell-based; conditions: Mus musculus; 72 hours, CCK-8; read-out: GI50 TEL-KIT/V559A-BaF3
Description: as §1

TEL-KIT/S709F-BaF3 = assay: Proliferation of TEL-KIT/S709F-BaF3 cells (CCK-8); format: cell-based; conditions: Mus musculus; 72 hours, CCK-8; read-out: GI50 TEL-KIT/S709F-BaF3
Description: as §1

TEL-KIT/V560D-BaF3 = assay: Proliferation of TEL-KIT/V560D-BaF3 cells (CCK-8); format: cell-based; conditions: Mus musculus; 72 hours, CCK-8; read-out: GI50 TEL-KIT/V560D-BaF3
Description: as §1

TEL-KIT/T670I-BaF3 = assay: Proliferation of TEL-KIT/T670I-BaF3 cells (CCK-8); format: cell-based, mouse; conditions: Mus musculus; 72 hours, CCK-8; read-out: GI50 TEL-KIT/T670I-BaF3
Description: Compounds as provided herein were further evaluated for their inhibitory effects on proliferation of cancer cells by testing their effects on growth of cancer cells. In this example the following cells were used: primary mouse B cells BaF3 (purchased from ATCC), GIST-T1 cells of the human gastrointestinal stromal tumor cell line (expressing wild-type KIT gene) (purchased from Cosmo Bio Co., Ltd. (Japan)). The present lab further constructed and used the following: mouse Tel-Kit-BaF3 (stably expressing KIT wild-type kinase), mouse Tel-Kit/T670I-BaF3 (stably expressing KIT T670I mutant kinase), mouse Tel-Kit/V559A-BaF3 (stably expressing KIT V559A mutant kinase), mouse Tel-Kit/V559D-BaF3 (stably expressing KIT V559D mutant kinase), mouse Tel-Kit/V559G-BaF3 (stably expressing KIT V559G mutant kinase), mouse Tel-Kit/V560D-BaF3 (stably expressing KIT V560D mutant kinase), mouse Tel-Kit/L576P-BaF3 (stably expressing KIT L576P mutant kinase), mouse Tel-Kit/V654A-BaF3 (stably expressing KIT V654A mutant kinase), mouse Tel-Kit/V654A/V559D-BaF3 (stably expressing KIT V654A V559D mutant kinase), mouse Tel-Kit/T670E-BaF3 (stably expressing KIT T670E mutant kinase), mouse Tel-Kit/T670I/V559D-BaF3 (stably expressing KIT T670I V559D mutant kinase), mouse Tel-Kit/S709F-BaF3 (stably expressing KIT S709F mutant kinase), mouse Tel-Kit/D816E-BaF3 (stably expressing KIT D816E mutant kinase), mouse Tel-Kit/D816H-BaF3 (stably expressing KIT D816H mutant kinase), mouse Tel-Kit/D820E-BaF3 (stably expressing KIT D820E mutant kinase), mouse Tel-Kit/D820G-BaF3 (stably expressing KIT D820G mutant kinase), mouse Tel-Kit/D820Y-BaF3 (stably expressing KIT D820Y mutant kinase), mouse Tel-Kit/N822K-BaF3 (stably expressing KIT N822K mutant kinase), mouse Tel-Kit/Y823D-BaF3 (stably expressing KIT Y823D mutant kinase), mouse Tel-Kit/A829P-BaF3 (stably expressing KIT A829P mutant kinase), GIST-T1-T670I cells of the human gastrointestinal stromal tumor cell line (expressing KIT-T670I mutant gene). The above cell lines were constructed by: amplifying respectively the sequences of human KIT and various mutant kinase regions of KIT via PCR, inserting the fragments respectively into MSCV-Puro vectors having a N-terminal TEL fragment and/or a NPM fragment and/or a TPR fragment (purchased from Clontech), transfecting mouse BaF3 cells with the vectors by means of retrovirus to obtain stably transfected cells, removing the growth factor IL-3, and thereby eventually obtaining cell lines that depend on the transferred protein KIT or various mutants of KIT. The GIST-T1-T670I (expressing C-KIT-T670I mutant gene) cell line was constructed by our laboratory as follows: designing sgRNA that targeted a region around T670 of the KIT gene with CRISPR Design Tool (website: crispr.mit.edu, Zhang Feng Lab), cloning it into pSpCas9(BB)-2A-Puro vector; co-transfecting cells with the resultant vector and a single-stranded oligonucleotide having T670I site mutation that is near to T670, subjecting the resultant to antibiotics screening, followed by dilution, and monocellular culture in a 96-well plate; validating the site T670 of the cells by sequence detection via Sanger sequencing.

TEL-KIT/V559G-BaF3 = assay: Proliferation of TEL-KIT/V559G-BaF3 cells (CCK-8); format: cell-based; conditions: Mus musculus; 72 hours, CCK-8; read-out: GI50 TEL-KIT/V559G-BaF3
Description: as §1

GIST-T1 = assay: Proliferation of GIST-T1 cells (CCK-8); format: cell-based; conditions: Homo sapiens, GISTT1; 72 hours, CCK-8; read-out: GI50 GIST-T1
Description: as §1, with “gene).” for “gene). The above cell lines were constructed by: amplifying respectively the sequences of human KIT and various mutant kinase regions of KIT via PCR, inserting the fragments respectively into MSCV-Puro vectors having a N-terminal TEL fragment and/or a NPM fragment and/or a TPR fragment (purchased from Clontech), transfecting mouse BaF3 cells with the vectors by means of retrovirus to obtain stably transfected cells, removing the growth factor IL-3, and thereby eventually obtaining cell lines that depend on the transferred protein KIT or various mutants of KIT.”
(§2) The cells after incubation were detected using CCK-8 (purchased from MedChem Express, Shanghai, China) cell viability assay kit (CCK-8 may be reduced by dehydrogenase in living cells to a highly water-soluble yellow formazan product, and the amount of the resultant formazan is proportional to the number of living cells), the number of living cells were quantified with a microplate reader, and GI50 of the compounds and the control compounds were calculated (the results shown in Table 2 and Table 3).

TEL-KIT/T670E-BaF3 = assay: Proliferation of TEL-KIT/T670E-BaF3 cells (CCK-8); format: cell-based; conditions: Mus musculus; 72 hours, CCK-8; read-out: GI50 TEL-KIT/T670E-BaF3
Description: as §1

TEL-KIT/D820G-BaF3 = assay: Proliferation of TEL-KIT/D820G-BaF3 cells (CCK-8); format: cell-based; conditions: Mus musculus; 72 hours, CCK-8; read-out: GI50 TEL-KIT/D820G-BaF3
Description: as §1

TEL-KIT/D816H-BaF3 = assay: Proliferation of TEL-KIT/D816H-BaF3 cells (CCK-8); format: cell-based; conditions: Mus musculus; 72 hours, CCK-8; read-out: GI50 TEL-KIT/D816H-BaF3
Description: as §1

TEL-KIT/T670I/V559D-BaF3 = assay: Proliferation of TEL-KIT/T670I/V559D-BaF3 cells (CCK-8); format: cell-based; conditions: Mus musculus; 72 hours, CCK-8; read-out: GI50 TEL-KIT/T670I/V559D-BaF3
Description: as §1

TEL-KIT/A829P-BaF3 = assay: Proliferation of TEL-KIT/A829P-BaF3 cells (CCK-8); format: cell-based; conditions: Mus musculus; 72 hours, CCK-8; read-out: GI50 TEL-KIT/A829P-BaF3
Description: as §1

TEL-KIT/V654A/V559D-BaF3 = assay: Proliferation of TEL-KIT/V654A/V559D-BaF3 cells (CCK-8); format: cell-based; conditions: Mus musculus; 72 hours, CCK-8; read-out: GI50 TEL-KIT/V654A/V559D-BaF3
Description: as §1

GIST-T1/T670I = assay: Proliferation of GIST-T1/T670I cells (CCK-8); format: cell-based; conditions: Homo sapiens, GISTT1; 72 hours, CCK-8; read-out: GI50 GIST-T1/T670I
Description: as §1, with “gene).” for “gene). The above cell lines were constructed by: amplifying respectively the sequences of human KIT and various mutant kinase regions of KIT via PCR, inserting the fragments respectively into MSCV-Puro vectors having a N-terminal TEL fragment and/or a NPM fragment and/or a TPR fragment (purchased from Clontech), transfecting mouse BaF3 cells with the vectors by means of retrovirus to obtain stably transfected cells, removing the growth factor IL-3, and thereby eventually obtaining cell lines that depend on the transferred protein KIT or various mutants of KIT.”
as §2

GI50 (TEL-KIT/V559D-BaF3): 10 nM
GI50 (TEL-KIT/D816E-BaF3): 174 nM
GI50 (TEL-KIT/V654A-BaF3): 1410 nM
GI50 (TEL-KIT/D820E-BaF3): 35 nM
GI50 (TEL-KIT/Y823D-BaF3): 5870 nM
GI50 (TEL-KIT/D820Y-BaF3): 435 nM
GI50 (TEL-KIT/N822K-BaF3): 1470 nM
GI50 (TEL-KIT/V559A-BaF3): 905 nM
GI50 (TEL-KIT/S709F-BaF3): 115 nM
GI50 (TEL-KIT/V560D-BaF3): 3 nM
GI50 (TEL-KIT/T670I-BaF3): > 10000 nM
GI50 (TEL-KIT/V559G-BaF3): 8 nM
GI50 (TEL-KIT/T670E-BaF3): 4080 nM
GI50 (TEL-KIT/D820G-BaF3): 337 nM
GI50 (TEL-KIT/D816H-BaF3): 651 nM
GI50 (TEL-KIT/T670I/V559D-BaF3): > 10000 nM
GI50 (TEL-KIT/A829P-BaF3): 580 nM
GI50 (TEL-KIT/V654A/V559D-BaF3): 608 nM
SMILES: Cc1ccc(NC(=O)c2ccc(CN3CCN(C)CC3)cc2)cc1Nc1nccc(-c2cccnc2)n1 [Imatinib, reference compound]
GI50 (GIST-T1): 15 nM
GI50 (GIST-T1/T670I): > 10000 nM
